Data set [1] concerns proteolytic plasmin-like activity in tear fluid. The experiment in a line: Radial caseinolysis assay of tear fluid proteolytic activity with inhibitors added. Format: biochemical, human. The procedure:
(§1) Assay of proteolytic activity in tear fluids. Tear fluid was collected into a glass capillary. Proteolytic activity, using an 8 ul specimen of tear fluid, was measured by the radial caseinolysis procedure^23, using agarose gel and bovine milk casein as substrate. Human plasmin (20 casein units per mg; Kabi Diagnostica, Stockholm, Sweden) was used as standard. The results are expressed as micrograms of plasmin-like activity per milliliter tear fluid. Plasminogen activator levels were determined according to Saksela^23 using plasminogen-containing casein-agarose gels and urokinase (50 000 Plough units/ml; Calbiochem) as standard.
Proteinase inhibitors-Aprotinin (20 000 IU/ml Trasylol®, Bayer), L-cysteine (0.15M; E. Merck), heparin (2500 IU/ml Medica).

A further data set relates to corneal lesions. Nature of the data set: Topical treatment of patients with corneal lesions, clinical response. The note with it: for clinical effect: used at first in patients 1, 3 and 4; for therapeutic effect: patient with bilateral acid corrosion. The class given is in vivo, human. As for the experimental part: Patients and control individuals. All patients reported here were treated in the Eye Clinic of the Helsinki Central University Hospital.
(§2) Proteinase inhibitor and fibronectin treatment. The patients received topical aprotinin (20 or 40 IU/ml), diluted from the stock preparation in sterile saline or commercially obtained wetting agent (Liquifilm Tears; Allergan), 1-2 drops (50 ul each) at 3 hour intervals. When applied, fibronectin (200 ug/ml) was administered 2-3 minutes after aprotinin treatment, also using 1-2 drops at a time.
After the success with this index case and similar experience with the first few additional patients the following therapeutic regimen was adopted. Patients with corneal ulcers were first treated for four days with conventional therapy including antimicrobial drugs according to laboratory findings or clinical picture. If no response was seen and if proteolytic activity was detected in the tear fluid, aprotinin therapy was initiated. In some cases with low activity in the initial or later tear fluid specimens, aprotinin was combined with topical fibronectin. In addition, in certain patients, such as in a patient with bilateral acid corrosion, no proteolytic activity was detected immediately after injury. […] In zymographic analysis the proteinase in the patient's tear fluid specimen comigrated with plasmin (data not shown). […] This patient will be described in detail elsewhere. However, a large proportion of patients with therapy-resistant corneal lesions of various categories (Table 2) had proteolytic activity and the above regimen was followed.

Data set [2] deals with tear fluid plasmin-like activity. Nature of the data set: Tear fluid plasmin-like activity of patients during therapy. Format: in vivo, human. The procedure: as §1, §2
Data set [3] in a line: Side effects of aprotinin eye drops in patients. Format: in vivo, human. As for the experimental part: as §2
A further data set relates to epithelium. The note with it: published report on clinical use of fibronectin; cited from earlier work.
The mark [4] stands for this setting: Patient 1 tear fluid (11.6 without inhibitor), aprotinin 20 IU/ml, L-cysteine 0.075 M, heparin 1250 IU/ml.
Where [5] appears, read: Patient 2 tear fluid (7.0 without inhibitor), aprotinin 20 IU/ml, L-cysteine 0.075 M, heparin 1250 IU/ml.
The mark [6] stands for this setting: Patient 8 tear fluid (6.0 without inhibitor), aprotinin 10 IU/ml, L-cysteine 0.075 M, heparin 1250 IU/ml.
The mark [7] stands for this setting: Patient 9 tear fluid (6.3 without inhibitor), aprotinin 10 IU/ml, L-cysteine 0.075 M, heparin 1250 IU/ml.
The mark [8] stands for this setting: tear fluid of patients 1, 2, 8 and 9 in vitro.
Where [9] appears, read: tear fluids of patients with corneal lesions, in the assay.

“Also recorded” adds a separate entry of the source.

For `N[C@@H](CS)C(=O)O` [L-cysteine], the Proteolytic plasmin-like activity worked out at 10.1 µg/mL in data set [1] (setting [4]), 7.2 µg/mL in data set [1] (setting [5]), 4.9 µg/mL in data set [1] (setting [6]) and 5.5 µg/mL in data set [1] (setting [7]). For the same compound, the “effect on the proteolytic activity of tear fluid” value (“effect … of tear fluid” below) is listed as “very little effect” in data set [1] (setting [8]) and “minimal inhibitory effect” in data set [1] (setting [9]). For the same compound, in the data set with corneal lesions (patient 4, topical L-cysteine therapy, no detectable microbial pathogens), the “course of cornea during therapy” value was “perforated spontaneously”. Besides, the clinical effect result with corneal lesions was “little or no clinical effect”.
Consider aprotinin, for which the Tearfluid plasmin-like activity in data set [2] (patient 2, 25 Nov, 7.0 on 1 Nov) was less than 0.1 µg/mL; in data set [2] (patient 3, 4 Dec, 6.8 on 16 Nov), less than 0.1 µg/mL; in data set [2] (patient 4, 20 Dec, 5.5 on 25 Nov), less than 0.1 µg/mL; in data set [2] (patient 7, 10 Jan, 7.6 on 8 Jan, aprotinin 20 IU/ml from Jan 8), 4.7 µg/mL; in data set [2] (patient 7, 16 Jan, aprotinin 20 IU/ml from Jan 8) it was 12.0 µg/mL; in data set [2] (patient 7, 20 Jan, aprotinin 20 IU/ml from Jan 8) it was 12.5 µg/mL. Moreover, the Tearfluid plasmin-like activity is 3.3 µg/mL in data set [2] (patient 7, 22 Jan, aprotinin 40 IU/ml hourly from 20 Jan, fibronectin added Jan 22); less than 0.1 µg/mL in data set [2] (patient 8, 14 Feb); 0.5 µg/mL in data set [2] (patient 8, 29 Jan, 6.0 on 6 Jan, 4.5 on 8 Jan during antibiotic therapy); 0.5 µg/mL in data set [2] (patient 8, 31 Jan); less than 0.1 µg/mL in data set [2] (patient 9, 13 Feb); 3.0 µg/mL in data set [2] (patient 9, 20 Jan, 6.3 on 16 Jan, with topical antibiotics). Also, the Tearfluid plasmin-like activity was less than 0.1 µg/mL in data set [2] (patient 9, 30 Jan); 2.4 µg/mL in data set [2] (patient 10, 22 Jan, 10.3 on 20 Jan); less than 0.1 µg/mL in data set [2] (patient 10, 24 Jan); less than 0.1 µg/mL in data set [2] (patient 11, 9 Feb); 1.9 µg/mL in data set [2] (patient 11, 30 Jan, 3.1 on 21 Jan); less than 0.1 µg/mL in data set [2] (patient 12, 6 Feb). Moreover, the Tearfluid plasmin-like activity in data set [2] (patient 12, 24 Jan, 20.0 on 22 Jan, with antibiotics) is 12.4 µg/mL; in data set [2] (patient 13, 3 Feb, 6.3 on 31 Jan, with topical acyclovir, antibiotics), 0.5 µg/mL; in data set [2] (patient 13, 19 Feb) it was less than 0.1 µg/mL. For the same compound, the Proteolytic plasmin-like activity in data set [1] (setting [4]) is less than 0.1 µg/mL; in data set [1] (setting [5]), less than 0.1 µg/mL; in data set [1] (Patient 7 tear fluid (7.6 without inhibitor), aprotinin 10 IU/ml), less than 0.1 µg/mL; in data set [1] (setting [6]), less than 0.1 µg/mL; in data set [1] (setting [7]), less than 0.1 µg/mL; in data set [1] (Patient 15 tear fluid (4.2 without inhibitor), aprotinin 10 IU/ml), less than 0.1 µg/mL. Moreover, the “effect … of tear fluid” value was “can be inhibited” in data set [1] (setting [9]) and “inhibit effectively” in data set [1] (tear fluids of patients with corneal lesions, in the assay, listed as Aprotinin). For the same compound, the response to therapy entry with corneal lesions (all fifteen patients with proteolytic activity in tear fluid and corneal lesion, aprotinin, in some cases combined with fibronectin) is given as “resulted in corneal epithelialization; also recorded: responded quickly”; in the data set on corneal lesions (patient 13, herpes keratitis, new erosion, with topical acyclovir, antibiotics) it was “clear improvement”. In addition, in the data set with corneal lesions (patient 1, novel therapy (aprotinin with fibronectin), after nine weeks of unsuccessful conventional treatment), the time to response was not above 24 h. For the same compound, in the data set on corneal lesions (patient 2, disciform keratitis, recurrent erosion for 1 week), the “Recovery in” value was 4 days. Moreover, the clinical response entry in the data set with corneal lesions (patient 3, corneal erosion caused by soft contact lens, proteinase inhibitor therapy) is “improved rapidly”; in the data set on corneal lesions (patient 4, corneal perforation, soft contact lens and antibiotics together with aprotinin), “led to healing”; with corneal lesions (patient 7, Mooren's ulcer, 20 IU/ml, later (20 Jan on) 40 IU/ml hourly), “successfully treated”. Also, the “Complete epithelialization in” value worked out at 48 h in the data set on corneal lesions (patient 3, soft contact lens user, recurrent corneal erosion); 2 weeks in the data set with corneal lesions (patient 12, absc. corneae, Moraxella, antibiotics and aprotinin). Moreover, in the data set on corneal lesions (patient 4, keratitis sicca, corneal perforation and ulcer), the “duration of corneal healing” value was “six”. For the same compound, the “ulcer area relative to original area” value with corneal lesions (patient 7, Mooren's ulcer, within a month after onset of aprotinin therapy) is reported as “regressed into a third of its original area”. Further, the “complete healing in” value in the data set with corneal lesions (patient 8, ulcus corneae, S. aureus, after onset of aprotinin) is 12 days. Moreover, the epithelialization result in the data set with corneal lesions (patient 9, deep corneal ulcer, topical antibiotics and aprotinin) was “rapid”. Also, the “epithelialization in” value with corneal lesions (patient 10, giant papillary conjunctivitis) was “one”. Besides, the “condition improved in” value amounted to 1 week in the data set on corneal lesions (patient 14, blepharitis chronica) and 5 days in the data set on corneal lesions (patient 15, conjunctivitis vernalis, punctate erosion). For the same compound, the therapeutic effect result in the data set with corneal lesions (aprotinin therapy after failure of fibronectin) was “rapid epithelization”. Moreover, in data set [3] (aprotinin eye drops, patient 4 (dry eyes, spontaneous perforation), five weeks), the “outcome and complications of longest treatment” value is listed as “good results without corneal or other complications”. In addition, the side effects entry in data set [3] (topical aprotinin therapy, patients) is “No side effects”.
For the compound fibronectin, the “appearance of corneal erosion” value with corneal lesions (patient 1, topical fibronectin alone from Oct. 16, one day later) is listed as “altered appearance”. Further, the therapeutic effect entry is “no such therapeutic effect was observed” with corneal lesions (left eye, fibronectin applied 7 days later, tear fluid with plasmin-like activity); “clear beneficial effect and epithelial healing” in the data set on corneal lesions (right eye, initial topical fibronectin, no proteolytic activity detected). In addition, the “time to healing of the epithelium” value with epithelium is “about 20 days”.
In the case of heparin, the Proteolytic plasmin-like activity in data set [1] (setting [4]) was found to be 11.9 µg/mL; in data set [1] (setting [5]), 7.8 µg/mL; in data set [1] (setting [6]) it was 7.2 µg/mL; in data set [1] (setting [7]), 6.8 µg/mL. The entries for the “effect … of tear fluid” value in data set [1] (setting [8]) and in data set [1] (setting [9]) were “very little effect” and “no effect”, respectively. The clinical effect entry with corneal lesions is given as “little or no clinical effect”.
